From PMC7531004, “Discovery of gramicidin A analogues with altered activities by multidimensional screening of a one-bead-one-compound library” (Nature Communications, 2020)
Where a SMILES comes first, the peptide text is derived from it. [ ]: non-standard residue; d: D form. The star is where a group is joined. NHCH2CH2OH = OCCN*; For = O=C*

Experiments:
[1] = test system: Streptococcus pyogenes SSI-9; experiment: Antibacterial activity assay of bead-derived peptides (three concentrations); assay type: cell-based; design: key: +++: inhibition by the 640-fold diluted peptide solution; ++: inhibition by the 160-fold diluted solution; +: inhibition by the 40-fold diluted solution; -: no inhibition; conditions: S. pyogenes, bead-derived peptide solution, three concentrations
Method in brief: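 Undiluted, 4-fold and 16-fold DMSO-diluted peptide stocks; S. pyogenes SSI-9, 2 × 10^5 CFU, cation-adjusted MHB (50 mg/L Ca2+, 25 mg/L Mg2+) + 5% laked horse blood; 37 °C, 18 h; readout = cell pellet visible or not.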

[2] = H+/Na+ transport assay of bead-derived peptides (one-point); assay type: biochemical; design: key: relative activity; mean of two control wells = 1.00; conditions: bead-derived peptide solution, EYPC/EYPG LUVs;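 further: relative to parent gramicidin A activity set to 1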
Method in brief: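 Miniaturized 96-well format. LUVs with entrapped pyranine (1.0 mM) were exposed to peptide for 30 min at RT. Intensities were expressed relative to full lysis by Triton X-100 and no treatment, with control-well mean = 1.00.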

[3] = test system: P388 mouse leukemia cells; conditions: 92 h
Method in brief: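 P388 cells at 1 × 10^4 cells/mL (final) were exposed to library peptides (stocks diluted 250-fold in RPMI1640/10% FBS) for 92 h at 37 °C, 5% CO2. Viable cells were counted by WST-1/1-methoxy PMS (4 h), absorbance 415 nm, and expressed as cell viability (%).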

CC(C)C[C@@H](NC(=O)[C@H](C)NC(=O)CNC(=O)[C@@H](NC=O)C(C)C)C(=O)N[C@@H](C)C(=O)N[C@@H](C(=O)N[C@H](C(=O)N[C@@H](C(=O)N[C@@H](Cc1c[nH]c2ccccc12)C(=O)N[C@@H](C(=O)N[C@@H](Cc1c[nH]c2ccccc12)C(=O)N[C@H](CC(C)C)C(=O)N[C@@H](Cc1c[nH]c2ccccc12)C(=O)N[C@@H](C(=O)N[C@@H](Cc1c[nH]c2ccccc12)C(=O)NCCO)C(C)C)C(C)C)[C@H](C)O)C(C)C)C(C)C [compound 4357] (For-VGA[dL]A[dV]V[dT]W[dV]W[dL]W[dV]W-NHCH2CH2OH)
antibacterial activity [1]: - | H+/Na+ transport activity normalized against the value of 1 (1.00) [2]: 1.01 | cell viability/% [3]: 100.0%

CC(C)C[C@@H](NC(=O)[C@H](C)NC(=O)[C@H](NC(=O)[C@H](C)NC(=O)CNC(=O)[C@@H](NC=O)C(C)C)C(C)C)C(=O)N[C@H](C(=O)N[C@@H](C(=O)N[C@@H](Cc1c[nH]c2ccccc12)C(=O)N[C@@H](C(=O)N[C@@H](Cc1c[nH]c2ccccc12)C(=O)N[C@@H](C(=O)N[C@@H](Cc1c[nH]c2ccccc12)C(=O)N[C@H](CC(C)C)C(=O)N[C@@H](Cc1c[nH]c2ccccc12)C(=O)NCCO)C(C)C)C(C)C)[C@H](C)O)C(C)C [compound 4395] (For-VGA[dV]A[dL]V[dT]W[dV]W[dV]W[dL]W-NHCH2CH2OH)
antibacterial activity [1]: - | H+/Na+ transport activity normalized against the value of 1 (1.00) [2]: 1.07 | cell viability/% [3]: 100.0%

CC(C)C[C@@H](NC(=O)[C@H](C)NC(=O)CNC(=O)[C@@H](NC=O)C(C)C)C(=O)N[C@@H](C)C(=O)N[C@H](CC(C)C)C(=O)N[C@H](C(=O)N[C@@H](C(=O)N[C@@H](Cc1c[nH]c2ccccc12)C(=O)N[C@@H](C(=O)N[C@@H](Cc1c[nH]c2ccccc12)C(=O)N[C@H](CC(C)C)C(=O)N[C@@H](Cc1c[nH]c2ccccc12)C(=O)N[C@H](CC(C)C)C(=O)N[C@@H](Cc1c[nH]c2ccccc12)C(=O)NCCO)[C@H](C)O)[C@H](C)O)C(C)C [compound 4421] (For-VGA[dL]A[dL]V[dT]W[dT]W[dL]W[dL]W-NHCH2CH2OH)
antibacterial activity [1]: - | H+/Na+ transport activity normalized against the value of 1 (1.00) [2]: 1.12 | cell viability/% [3]: 100.0%

CC(C)C[C@@H](NC(=O)[C@H](C)NC(=O)CNC(=O)[C@@H](NC=O)C(C)C)C(=O)N[C@@H](C)C(=O)N[C@@H](C(=O)N[C@H](C(=O)N[C@@H](C(=O)N[C@@H](Cc1c[nH]c2ccccc12)C(=O)N[C@@H](C(=O)N[C@@H](Cc1c[nH]c2ccccc12)C(=O)N[C@H](CC(C)C)C(=O)N[C@@H](Cc1c[nH]c2ccccc12)C(=O)N[C@@H](C(=O)N[C@@H](Cc1c[nH]c2ccccc12)C(=O)NCCO)C(C)C)C(C)C)[C@H](C)O)C(C)C)C(C)C [compound 4427] (For-VGA[dL]A[dV]V[dT]W[dV]W[dL]W[dV]W-NHCH2CH2OH)
antibacterial activity [1]: - | H+/Na+ transport activity normalized against the value of 1 (1.00) [2]: 1.18 | cell viability/% [3]: 100.0%

CC(C)C[C@@H](NC(=O)[C@H](Cc1c[nH]c2ccccc12)NC(=O)[C@H](NC(=O)[C@H](Cc1c[nH]c2ccccc12)NC(=O)[C@@H](CC(C)C)NC(=O)[C@H](Cc1c[nH]c2ccccc12)NC(=O)[C@@H](CC(C)C)NC(=O)[C@@H](NC(=O)[C@H](NC(=O)[C@H](C)NC(=O)[C@H](NC(=O)[C@H](C)NC(=O)CNC(=O)[C@@H](NC=O)C(C)C)[C@H](C)O)C(C)C)C(C)C)C(C)C)C(=O)N[C@@H](Cc1c[nH]c2ccccc12)C(=O)NCCO [compound 4440] (For-VGA[dT]A[dV]V[dL]W[dL]W[dV]W[dL]W-NHCH2CH2OH)
antibacterial activity [1]: - | H+/Na+ transport activity normalized against the value of 1 (1.00) [2]: 1.15 | cell viability/% [3]: 85.6%

CC(C)C[C@@H](NC(=O)[C@H](C)NC(=O)[C@H](NC(=O)[C@H](C)NC(=O)CNC(=O)[C@@H](NC=O)C(C)C)C(C)C)C(=O)N[C@H](C(=O)N[C@H](CC(C)C)C(=O)N[C@@H](Cc1c[nH]c2ccccc12)C(=O)N[C@@H](C(=O)N[C@@H](Cc1c[nH]c2ccccc12)C(=O)N[C@@H](C(=O)N[C@@H](Cc1c[nH]c2ccccc12)C(=O)N[C@@H](C(=O)N[C@@H](Cc1c[nH]c2ccccc12)C(=O)NCCO)C(C)C)C(C)C)C(C)C)C(C)C [compound 4477] (For-VGA[dV]A[dL]V[dL]W[dV]W[dV]W[dV]W-NHCH2CH2OH)
antibacterial activity [1]: + | H+/Na+ transport activity normalized against the value of 1 (1.00) [2]: 1.38 | cell viability/% [3]: 6.3%

CC(C)C[C@@H](NC(=O)[C@H](C)NC(=O)CNC(=O)[C@@H](NC=O)C(C)C)C(=O)N[C@@H](C)C(=O)N[C@@H](C(=O)N[C@H](C(=O)N[C@@H](C(=O)N[C@@H](Cc1c[nH]c2ccccc12)C(=O)N[C@@H](C(=O)N[C@@H](Cc1c[nH]c2ccccc12)C(=O)N[C@@H](C(=O)N[C@@H](Cc1c[nH]c2ccccc12)C(=O)N[C@H](CC(C)C)C(=O)N[C@@H](Cc1c[nH]c2ccccc12)C(=O)NCCO)C(C)C)C(C)C)[C@H](C)O)C(C)C)C(C)C [compound 4493] (For-VGA[dL]A[dV]V[dT]W[dV]W[dV]W[dL]W-NHCH2CH2OH)
antibacterial activity [1]: - | H+/Na+ transport activity normalized against the value of 1 (1.00) [2]: 1.19 | cell viability/% [3]: 100.0%

CC(C)C[C@@H](NC(=O)[C@H](C)NC(=O)CNC(=O)[C@@H](NC=O)C(C)C)C(=O)N[C@@H](C)C(=O)N[C@@H](C(=O)N[C@H](C(=O)N[C@@H](C(=O)N[C@@H](Cc1c[nH]c2ccccc12)C(=O)N[C@H](CC(C)C)C(=O)N[C@@H](Cc1c[nH]c2ccccc12)C(=O)N[C@H](CC(C)C)C(=O)N[C@@H](Cc1c[nH]c2ccccc12)C(=O)N[C@H](CC(C)C)C(=O)N[C@@H](Cc1c[nH]c2ccccc12)C(=O)NCCO)C(C)C)C(C)C)C(C)C [compound 4495] (For-VGA[dL]A[dV]V[dV]W[dL]W[dL]W[dL]W-NHCH2CH2OH)
antibacterial activity [1]: ++ | H+/Na+ transport activity normalized against the value of 1 (1.00) [2]: 1.26 | cell viability/% [3]: 3.5%

CC(C)C[C@@H](NC(=O)[C@H](C)NC(=O)CNC(=O)[C@@H](NC=O)C(C)C)C(=O)N[C@@H](C)C(=O)N[C@H](CC(C)C)C(=O)N[C@H](C(=O)N[C@H](CC(C)C)C(=O)N[C@@H](Cc1c[nH]c2ccccc12)C(=O)N[C@@H](C(=O)N[C@@H](Cc1c[nH]c2ccccc12)C(=O)N[C@@H](C(=O)N[C@@H](Cc1c[nH]c2ccccc12)C(=O)N[C@@H](C(=O)N[C@@H](Cc1c[nH]c2ccccc12)C(=O)NCCO)C(C)C)C(C)C)[C@H](C)O)C(C)C [compound 4532] (For-VGA[dL]A[dL]V[dL]W[dT]W[dV]W[dV]W-NHCH2CH2OH)
antibacterial activity [1]: - | H+/Na+ transport activity normalized against the value of 1 (1.00) [2]: 1.11 | cell viability/% [3]: 100.0%

CC(C)C[C@@H](NC(=O)[C@H](C)NC(=O)[C@H](NC(=O)[C@H](C)NC(=O)CNC(=O)[C@@H](NC=O)C(C)C)[C@H](C)O)C(=O)N[C@H](C(=O)N[C@H](CC(C)C)C(=O)N[C@@H](Cc1c[nH]c2ccccc12)C(=O)N[C@@H](C(=O)N[C@@H](Cc1c[nH]c2ccccc12)C(=O)N[C@H](CC(C)C)C(=O)N[C@@H](Cc1c[nH]c2ccccc12)C(=O)N[C@@H](C(=O)N[C@@H](Cc1c[nH]c2ccccc12)C(=O)NCCO)C(C)C)[C@H](C)O)C(C)C [compound 4545] (For-VGA[dT]A[dL]V[dL]W[dT]W[dL]W[dV]W-NHCH2CH2OH)
antibacterial activity [1]: - | H+/Na+ transport activity normalized against the value of 1 (1.00) [2]: 1.18 | cell viability/% [3]: 100.0%

CC(C)C[C@@H](NC(=O)[C@H](C)NC(=O)[C@H](NC(=O)[C@H](C)NC(=O)CNC(=O)[C@@H](NC=O)C(C)C)[C@H](C)O)C(=O)N[C@H](C(=O)N[C@@H](C(=O)N[C@@H](Cc1c[nH]c2ccccc12)C(=O)N[C@@H](C(=O)N[C@@H](Cc1c[nH]c2ccccc12)C(=O)N[C@H](CC(C)C)C(=O)N[C@@H](Cc1c[nH]c2ccccc12)C(=O)N[C@H](CC(C)C)C(=O)N[C@@H](Cc1c[nH]c2ccccc12)C(=O)NCCO)C(C)C)C(C)C)C(C)C [compound 4652] (For-VGA[dT]A[dL]V[dV]W[dV]W[dL]W[dL]W-NHCH2CH2OH)
antibacterial activity [1]: - | H+/Na+ transport activity normalized against the value of 1 (1.00) [2]: 1.03 | cell viability/% [3]: 100.0%

CC(C)C[C@@H](NC(=O)[C@H](C)NC(=O)CNC(=O)[C@@H](NC=O)C(C)C)C(=O)N[C@@H](C)C(=O)N[C@H](CC(C)C)C(=O)N[C@H](C(=O)N[C@@H](C(=O)N[C@@H](Cc1c[nH]c2ccccc12)C(=O)N[C@H](CC(C)C)C(=O)N[C@@H](Cc1c[nH]c2ccccc12)C(=O)N[C@H](CC(C)C)C(=O)N[C@@H](Cc1c[nH]c2ccccc12)C(=O)N[C@@H](C(=O)N[C@@H](Cc1c[nH]c2ccccc12)C(=O)NCCO)C(C)C)[C@H](C)O)C(C)C [compound 4690] (For-VGA[dL]A[dL]V[dT]W[dL]W[dL]W[dV]W-NHCH2CH2OH)
antibacterial activity [1]: + | H+/Na+ transport activity normalized against the value of 1 (1.00) [2]: 1.01 | cell viability/% [3]: 100.0%

CC(C)C[C@@H](NC(=O)[C@H](C)NC(=O)[C@H](NC(=O)[C@H](C)NC(=O)CNC(=O)[C@@H](NC=O)C(C)C)C(C)C)C(=O)N[C@H](C(=O)N[C@@H](C(=O)N[C@@H](Cc1c[nH]c2ccccc12)C(=O)N[C@@H](C(=O)N[C@@H](Cc1c[nH]c2ccccc12)C(=O)N[C@H](CC(C)C)C(=O)N[C@@H](Cc1c[nH]c2ccccc12)C(=O)N[C@@H](C(=O)N[C@@H](Cc1c[nH]c2ccccc12)C(=O)NCCO)C(C)C)C(C)C)[C@H](C)O)C(C)C [compound 4710] (For-VGA[dV]A[dL]V[dT]W[dV]W[dL]W[dV]W-NHCH2CH2OH)
antibacterial activity [1]: - | H+/Na+ transport activity normalized against the value of 1 (1.00) [2]: 1.06 | cell viability/% [3]: 100.0%
